These results are taken from patent US20090203658A1, “NEUROACTIVE STEROID COMPOSITIONS AND METHODS OF USE THEREFOR” (Duke University, priority 2007, published 2009).

Marks after values point to notes of the source that are not given here.

The conditions of data set [1]: DHEA administration in humans (50 mg); cited from earlier work.
For a further data set, the system named is healthy male smokers. The data set can be described thus: Pilot study of one-time DHEA or PG after overnight abstinence from cigarettes: craving measures. It counts as in vivo, human. As to conditions: one-time 400 mg; vs. placebo. How it is done:
Elaborating, a pilot study is provided herein, which involves administering one-time DHEA (400 mg), PG (400 mg) or placebo to healthy male smokers following overnight abstinence from cigarettes. […] Thus, neuroactive steroids can be candidate therapeutic molecules for smoking cessation.

In another data set the test system is brain. Conditions: in vivo; cited from earlier work.
For data set [2] the following is noted: single dose of PG 175 mg; over the course of 5-8 hours; cited from earlier work.
In data set [3] the test system is subjects with schizophrenia or schizoaffective disorder.
Data set [4] shares this test system. In words: Randomized placebo-controlled double-blind trial of adjunctive PG: negative and cognitive symptoms (SANS, BACS, MATRICS). The format is in vivo, human. The source says:
Of 21 subjects randomized, 18 completed at least four weeks of treatment (n=9 per group). […] Increases in serum PG levels were positively correlated with cognitive improvement in the PG group, predicting both BACS (r=0.79, n=9, p=0.02; see FIG. 3A) and MATRICS (r=0.70, n=9, p=0.05; see FIG. 3B) composite scores at eight weeks. The mean BACS z-score increase for the PG group was 0.60 (vs. 0.22 for the placebo group). BACS and MATRICS assessments were correlated (r=0.74, p<0.0001).

In a further data set the test system is rat frontal cortex. In words: Neuroactive steroid levels in frontal cortex after chronic lithium or valproate (GC/MS preceded by HPLC). As to conditions: chronic administration four weeks, n=9. The format is in vivo, Male Wistar Kyoto rats. The procedure: Lithium and Valproate Administration.
NS analyses in rat and mouse frontal cortex were performed as described in Marx et al., 2006a; Marx et al., 2006b; and Marx et al., 2006c. Rodent brain tissue was homogenized in 5 volumes of distilled water containing about 2200 cpm (4400 dpm/injection) of tritiated NS (Perkin Elmer, Waltham, Mass.) to detect the HPLC fraction containing the NS of interest. Deuterated ALLO (D4-ALLO, 400 pg) and deuterated PG (D4-PG, 400 pg) were used as internal standards. Supernatants were extracted three times with three volumes of ethyl acetate and dried under nitrogen prior to HPLC purification. […] The limit of NS detection with this method was 2 pg for ALLO and 10 pg for PG. Mean intra-assay coefficients of variation were 3.9% for ALLO and 3.0% for PG.
Statistical Analysis. For rat experiments utilizing chronic lithium and valproate administration, data were analyzed by ANOVA with post-hoc Dunnett tests. Data from Bcl-2 knockout mouse experiments were analyzed by unpaired t-tests.
To that end, NS levels (ALLO and PG) were determined in frontal cortex by negative ion chemical ionization gas chromatography/mass spectrometry in male Wistar Kyoto rats treated chronically with lithium, valproate, or vehicle. NS were also investigated in heterozygous Bcl-2 knockout mice.

Data set [5] is described as follows: Serum drug levels after chronic lithium or valproate in chow. As to conditions: chow 1.2 then 2.4 g Li2CO3/kg, four weeks; measured by atomic absorption.
Source text: Lithium and Valproate Administration. […] Animals were fed with control rodent chow or chow containing a low dose of lithium (1.2 g Li2CO3/kg) or valproate (10 g/kg) for one week to allow the animals to slowly acclimate to the drug, and were then fed with chow containing a full dose of lithium (2.4 g Li2CO3/kg) or valproate (20 g/kg) for three weeks. On the last day of the treatment, animals were sacrificed, and trunk blood was collected to measure lithium and valproate levels in the serum.
[6] abbreviates: change from baseline (Hillside AE Form), n = 9.
Setting [7] is: change from baseline (Hillside AE Form), n = 9, mild in all subjects.

With `C[C@]12CC[C@H](O)CC1=CC[C@@H]1[C@@H]2CC[C@]2(C)C(=O)CC[C@@H]12` [DHEA, dehydroepiandrosterone], the “increase of ALLO” value in [1] is given as “three-fold”. The “craving measures following overnight smoking cessation” value with healthy male smokers was “attenuates craving measures”.

Consider `CNCCC(Oc1ccc(C(F)(F)F)cc1)c1ccccc1` (stereo not shown) [Fluoxetine], for which the “effect on brain ALLO levels and PG levels” value with brain is recorded as “elevates”.

`CC(=O)[C@H]1CC[C@H]2[C@@H]3CC=C4C[C@@H](O)CC[C@]4(C)[C@H]3CC[C@]12C` [PG, pregnenolone]: the “change of serum PG levels” value in data set [2] is “approximately doubled”. For the same compound, the “AIMS, Barnes Akathisia Scale, Simpson-Angus Scale, blood pressure, pulse, or weight” value in data set [3] (PG administration) is recorded as “did not result in a significant change”. In addition, the tolerability entry in data set [3] (PG group, n=9) is listed as “well-tolerated”. Also, the “glucose level, average post-treatment” value in data set [3] (average baseline 117.9 mg/dl) amounted to 119.0 mg/dL. Besides, in [3] (average baseline 185.8 mg/dl), the “cholesterol, average post-treatment” value was 164.6 mg/dL. For the same compound, in data set [3] (baseline (visit 1) vs. week 10 (visit 6)), the “QTc intervals on EKG” value is reported as “did not negatively impact”. In data set [3] (setting [6]), the Akathisia is listed as 0 N (%), the “All Other Side Effects” value is 0 N (%), the “Blurred Vision” value is on record as 0 N (%) and the Diarrhea was 0 N (%). In addition, in [3] (setting [6]), the Drowsiness is on record as 0 N (%), the Excitation/Agitation was 0 N (%), the Headache was 0 N (%) and the “Impaired Sexual Performance” value is 0 N (%). Moreover, in [3] (setting [6]), the Insomnia is recorded as 0 N (%), the “Joint Pain/Stiffness” value was 0 N (%), the Malaise is 0 N (%) and the “Nasal Congestion” value is 0 N (%). Also, in data set [3] (setting [6]), the “Peripheral Edema” value is recorded as 0 N (%), the Rigidity is recorded as 0 N (%), the Sweating was 0 N (%) and the Tremor is 0 N (%). Moreover, the Hypertension in data set [3] (change from baseline (Hillside AE Form), n = 9, mild (<145/90)) was 1 (11%)^b N (%). Besides, in [3] (setting [7]), the “Cold Extremities” value was 1 (11%)^a N (%), the “Decreased Interest in Sex” value is reported as 1 (11%)^a N (%), the Dry mouth was 1 (11%)^a N (%) and the “Muscle Pain/Stiffness” value is listed as 1 (11%)^a N (%). For the same compound, the Restlessness in [3] (setting [7]) is on record as 2 (22%)^a N (%). In addition, in [3] (change from baseline pre-randomization (Hillside AE Form), n = 9, mild in all subjects), the “Disorientation (to date, address, mayor, or MD name)” value was 2 (22%)^a N (%). Further, the “mean change in SANS scores (improvement)” value in data set [4] (PG 50 to 250 mg BID for 8 weeks added to second generation antipsychotics, n=9, placebo 2.33, p=0.05) worked out at 10.38. The “mean BACS z-score increase” value in data set [4] (PG group, placebo group 0.22) is on record as 0.60. Besides, the “increase in serum ALLO levels after PG administration” value (eight weeks of PG vs. baseline, schizophrenia subjects) is “over 5 fold”. Moreover, the “PGS levels after PG administration” value (subjects with schizophrenia, baseline vs. 10 weeks) is on record as “significantly increased”. Besides, in the data set on healthy male smokers, the “craving measures following overnight smoking cessation” value was “attenuates craving measures”.

For `[Li]` [lithium], in the data set on rat frontal cortex (0.75 SEM, vehicle 0.71 ng/g, post-hoc Dunnett p<0.05), the “mean ALLO levels in rat frontal cortex” value came to 2.42 ng/g. In the data set with rat frontal cortex (±2.95 SEM, vehicle 3.37 ng/g, post-hoc Dunnett p=0.09), the “mean PG levels in rat frontal cortex” value was 8.19 ng/g. Further, in [5], the serum lithium level was found to be 0.74 ±0.31 mEq/l.
